From ChEMBL document CHEMBL4706653, “Ultra-short lipopeptides against gram-positive bacteria while alleviating antimicrobial resistance” (Eur J Med Chem, 2021)
Active and inactive are the calls of the source. Positions of bridges follow the written chain, without caps; N, C: chain ends. Non-standard residues stand in square brackets, D forms with d. Residues, ends and D or L forms follow the SMILES beside them. *: point of attachment. X1 = CC[C@H](C)CCCCC(=O)*; Dab = NCC[C@H](N)C(=O)O

What was measured:
[1] = Toxicity in BALB/c mouse assessed as death at 20 mg/kg, ip administered as single dose measured within 24 hrs; format: organism-based; conditions: in vivo
[2] = Toxicity in BALB/c mouse assessed as vacuoles in liver cytoplasm at 20 mg/kg, ip administered as single dose measured after 5 days; format: organism-based; conditions: in vivo, 120 h, time 5 day
[3] = test system: Staphylococcus aureus; test: Induction of nucleic acid leakage in Staphylococcus aureus ATCC 25923 at 4 times MIC; format: functional
[4] = test system: Staphylococcus aureus; test: Antibiofilm activity against Staphylococcus aureus ATCC 25923 at 0.5 to 8 uM after 24 hrs by crystal violet staining based assay; format: functional, organism-based; conditions: dose 0.5-8 µM
[5] = Toxicity in BALB/c mouse assessed as congestion in kidney at 40 mg/kg, ip administered as single dose measured after 5 days; format: organism-based; conditions: in vivo, 120 h, time 5 day
[6] = Toxicity in BALB/c mouse assessed as congestion in liver at 20 mg/kg, ip administered as single dose measured after 5 days; format: organism-based; conditions: in vivo, 120 h, time 5 day
[7] = Toxicity in BALB/c mouse assessed as liver cell lysis at 80 mg/kg, ip administered as single dose measured after 5 days; format: organism-based; conditions: in vivo, 120 h, time 5 day
[8] = Toxicity in BALB/c mouse assessed as ruffled fur at 20 to 80 mg/kg, ip administered as single dose measured within 30 mins; format: organism-based; conditions: in vivo, 0.5 h, dose 20-80 mg/kg
[9] = test system: Staphylococcus aureus; test: Antimicrobial activity against methicillin-resistant Staphylococcus aureus 113 after 18 hrs by broth microdilution method; format: functional
[10] = Toxicity in BALB/c mouse assessed as eosinophilic mass in the renal tubular lumen at 80 mg/kg, ip administered as single dose measured after 5 days; format: organism-based; conditions: in vivo, 120 h, time 5 day
[11] = Toxicity in BALB/c mouse assessed as immobility at 20 to 80 mg/kg, ip administered as single dose measured within 30 mins; format: organism-based; conditions: in vivo, 0.5 h, dose 20-80 mg/kg
[12] = test system: Staphylococcus aureus; test: Antimicrobial activity against Staphylococcus aureus ATCC 25923 assessed as bacterial killing preincubated for 4 hrs followed by replating on MHB agar and measured after 24 hrs by time kill assay; format: functional, organism-based; conditions: time 28.0 hrs
[13] = Toxicity in BALB/c mouse assessed as swelling of renal tubular epithelial cells at 80 mg/kg, ip administered as single dose measured after 5 days; format: organism-based; conditions: in vivo, 120 h, time 5 day
[14] = test system: Lipopolysaccharide (LPS); test: Binding affinity to LPS (unknown origin) assessed as bacterial killing at 2 times MIC preincubated for 1 hr followed by Staphylococcus aureus ATCC 25923 addition and measured after 2 hrs by colony counting method; conditions: time 3.0 hrs
[15] = test system: Staphylococcus aureus; test: Antibiofilm activity against ciprofloxacin-resistant Staphylococcus aureus ATCC 25923 at 0.5 to 8 uM after 24 hrs by crystal violet staining based assay; format: functional, organism-based; conditions: dose 0.5-8 µM
[16] = test system: Cell membrane; test: Induction of membrane disruption in Staphylococcus aureus ATCC 25923 assessed as PI-positive cells at 4 times MIC measured after 2 hrs by propidium iodide staining based flow cytometry relative to control
[17] = test system: Staphylococcus aureus; test: Antimicrobial activity against Staphylococcus aureus ATCC 25923 at 0.5 times MIC after 15 passages by broth microdilution method; format: functional, organism-based
[18] = Toxicity in BALB/c mouse assessed as death at 20 to 80 mg/kg, ip administered as single dose measured within 30 mins; format: organism-based; conditions: in vivo, 0.5 h, dose 20-80 mg/kg
[19] = test system: Staphylococcus aureus; test: Antimicrobial activity against methicillin-resistant Staphylococcus aureus 75 after 18 hrs by broth microdilution method; format: functional
[20] = test system: Cell membrane; test: Induction of cytoplasmic membrane disruption in Staphylococcus aureus ATCC 25923 measured for 15 mins by DiSC3-5 dye based fluorescence assay
[21] = test system: Bacillus subtilis; test: Antimicrobial activity against Bacillus subtilis ATCC 23857 after 18 hrs by broth microdilution method; format: functional
[22] = Binding affinity to LTA (unknown origin) assessed as bacterial killing at 2 times MIC preincubated for 1 hr followed by Staphylococcus aureus ATCC 25923 addition and measured after 2 hrs by colony counting method; conditions: time 3.0 hrs
[23] = test system: Cell membrane; test: Induction of membrane disruption in Staphylococcus aureus ATCC 25923 assessed as PI-positive cells at 2 times MIC measured after 2 hrs by propidium iodide staining based flow cytometry relative to control
[24] = test system: Staphylococcus aureus; test: Antimicrobial activity against Staphylococcus aureus ATCC 29213 after 18 hrs by broth microdilution method; format: functional
[25] = test system: Cell membrane; test: Induction of membrane disruption in Staphylococcus aureus ATCC 25923 measured after 2 hrs by propidium iodide staining based confocal laser scanning microscopic analysis; format: subcellular
[26] = Toxicity in BALB/c mouse assessed as inflammatory cell infiltration in liver at 20 mg/kg, ip administered as single dose measured after 5 days; format: organism-based; conditions: in vivo, 120 h, time 5 day
[27] = test system: Staphylococcus aureus; test: Induction of reactive oxygen species generation in Staphylococcus aureus ATCC 25923 by […] dye based fluorescence assay; format: functional, organism-based
[28] = test system: Staphylococcus epidermidis; test: Antimicrobial activity against Staphylococcus epidermidis ATCC 12228 at 0.5 times MIC after 15 passages by broth microdilution method; format: functional, organism-based
[29] = test system: Staphylococcus aureus; test: Antimicrobial activity against Staphylococcus aureus ATCC 25923 after 18 hrs by broth microdilution method; format: functional
[30] = test system: Staphylococcus epidermidis; test: Antimicrobial activity against Staphylococcus epidermidis ATCC 12228 after 18 hrs by broth microdilution method; format: functional
[31] = Toxicity in BALB/c mouse assessed as inflammatory cell infiltration in kidney at 80 mg/kg, ip administered as single dose measured after 5 days; format: organism-based; conditions: in vivo, 120 h, time 5 day

CC[C@H](C)CCCCC(=O)N[C@@H](CCN)C(=O)N[C@H](C(=O)N[C@@H](CCN)C(=O)N[C@H]1CCNC(=O)[C@H]([C@@H](C)O)NC(=O)[C@H](CCN)NC(=O)[C@H](CCN)NC(=O)[C@H](CC(C)C)NC(=O)[C@@H](Cc2ccccc2)NC(=O)[C@H](CCN)NC1=O)[C@@H](C)O (X1-[Dab]T[Dab][Dab][Dab][dF]L[Dab][Dab]T; lactam 4-C)
84.8%: Activity [16]
inactive: Activity [3] | Activity [12] | Activity [20] | Activity [25]
68%: Activity [23]
16 µM: MIC [24] | MIC [29]
Toxic: Activity [1] | Activity [2] | Activity [5] | Activity [6] | Activity [7] | Activity [8] | Activity [10] | Activity [11] | Activity [13] | Activity [18] | Activity [26] | Activity [31]
active: Activity [4] | Activity [14] | Activity [15] | Activity [17] | Activity [22] | Activity [27] | Activity [28]
8 µM: MIC [9] | MIC [19] | MIC [21] | MIC [30]
